Experiments:
[1] = system: 4T1-HER2 cells; experiment: cell viability by Guava flow cytometry (forward scattering); format: cell-based, murine; settings: FIG. 13A; UVADEX alone, 10 μM 8-MOP equivalent; 1 Gy of 80 kVp; p=0.97
Description: (§1) As part of the baseline study, in-vitro studies were conducted on plated cells following standard procedures. Cells were maintained in RPMI-1640 supplemented with 10% fetal bovine serum and L-glutamine from GIBCO (Grand Island, N.Y.) growing in a humidified atmosphere of 5% CO2. After incubation, cells were trypsinized and plated evenly onto twelve 12-well plates for 24 hours. About 20 minutes prior to irradiation, the 12 wells of each plate were exposed to the following combinations of additives: (1) control—cells only with no additives, (2) UVADEX only, (3) phosphors only, (4) UVADEX+ phosphors. Each plate had 12 wells with three wells for each of the four treatment arms. […]
(§2) Two primary flow cytometry analyses were used, both determined at 48 hours after treatment. […] The first analysis evaluated was metabolic cell viability (herein referred to as cell viability) calculated from the number of whole cells per well as determined using forward scattering (FSC). […]
(§3) FIGS. 13A-13D illustrates the efficacy of treatment in-vitro in 4T1-HER2 cells, utilizing a regimen of 1/10-diluted UVADEX (with equivalent of 10 uM 8-MOP), 50 μg/mL phosphor 1 Gy of 80 kVp x-rays. […] In FIG. 13A, cell viability after treatment (10 μM 8-MOP equivalent dilution of UVADEX, 50 μg/mL phosphor, 1 Gy of 80 kVp radiation) as determined by Guava flow cytome cytometry is depicted. […]

[2] = system: 4T1-HER2 cells; experiment: Annexin V positivity by flow cytometry; format: cell-based, murine; settings: FIG. 13B; either with or without x-ray (p values of 0.90 and 0.09)
Description: as §1, §2, §3

[3] = system: 4T1-HER2 cells; experiment: Methylene blue staining for cell viability; format: cell-based, murine; settings: FIGS. 13C, 13D; individual components; 1 Gy of 80 kVp x-rays; UVADEX 10 uM 8-MOP equivalent, phosphor 25, 50, 100 μg/mL
Source text: Methylene blue staining of viable 4T1-HER2 cells confirms that the device works well according to the target parameters identified above. A plate having six (6) wells is subjected to treatment. […] One well (#1) is the control. One well (#2) has phosphor coated with EC and DLC (H100). One well (#3) has phosphor coated with EC (but no DLC). One well (#4) has drug UVADEX but no phosphors. One well (#5) has drug UVADEX and phosphors coated with EC and DLC. One well (#6) has drug UVADEX and phosphors coated with EC and no DLC.
All wells were exposed to the x-ray conditions noted above. […] One added benefit to a dual coating is redundancy in safety of the treatment.
(§4) Other assays were used to provide independent complimentary information on cell viability, e.g. Methylene blue staining and ATP-induced Luminescence imaging (Cell-Titer-Glo® Luminescence Cell Viability Assay). The luminescence imaging permitted investigation of the cytotoxicity of psoralen activated directly with a UV lamp, and in the absence of phosphors and x-ray radiation.
FIGS. 13A-13D illustrates the efficacy of treatment in-vitro in 4T1-HER2 cells, utilizing a regimen of 1/10-diluted UVADEX (with equivalent of 10 uM 8-MOP), 50 μg/mL phosphor 1 Gy of 80 kVp x-rays. FIG. 13A presents the cell viability data for three treatment conditions: UVADEX alone, phosphors alone, and the combination of UVADEX and phosphors. […]

[4] = system: KP-B (sarcoma) cell lines; experiment: Cell-Titer-Glo Luminescence Cell Viability Assay, UV activated psoralen; format: cell-based, mice; settings: FIG. 14A; psoralen 40 μM; UV light 0, 0.25, 0.5, 1.0 J/cm^2; N=4
Source text: The mouse breast cancer cell line 4T1 was purchased from ATCC. 4T1-HER2 was provided by Dr. Michael Kershaw (Cancer Immunology Program, Peter MacCallum Cancer Centre, Victoria, Australia) and maintained in DMEM with penicillin/streptomycin and 10% FBS The Sarcoma KP-B cell lines were derived from primary tumors LSL-Kras; p53 Flox/Flox mice (45).
as §4
(§5) FIG. 14B presents data on CT2A malignant glioma cells, for a range of treatment parameters including variable x-ray dose (0, 0.67 and 1 Gy), phosphor concentration (50 or 100 μg) and psoralen concentration (8-MOP) at 10, 20 and 40 μM respectively. […] N=4 for each cell line at each UV light condition (0, 0.25, 0.5, 1.0 J/cm^2). The psoralen concentration was 40 μM. For FIG. 14B, in CT2A cells, the treatment cytotoxicity increases with X-ray dose (0, 0.67 and 1.00 Gy respectively), concentration of 8-MOP psoralen (10, 20 and 40 μM respectively), and phosphor (50 and 100 μg/ml) respectively (p values shown thereon).

[5] = system: CT2A (murine malignant glioma); experiment: as above; format: cell-based; settings: FIG. 14A; psoralen 40 μM; UV light 0, 0.25, 0.5, 1.0 J/cm^2; N=4
Source text: as §4, §5

[6] = system: 4T1; experiment: as above; format: cell-based, murine; settings: FIG. 14A; psoralen 40 μM; UV light 0, 0.25, 0.5, 1.0 J/cm^2; N=4
Source text: as §4, §5

| SMILES | effect of addition of radiation on cell viability [1] | apoptotic activity (Annexin V) [2] | cell viability by methyl blue staining [3] | viable cells [4] | viable cells [5] | viable cells [6] |
| --- | --- | --- | --- | --- | --- | --- |
| COc1c2occc2cc2ccc(=O)oc12 [UVADEX, 8-methoxypsoralen] | no significant effect on cell viability | negligible apoptotic activity | little effect | – | – | – |
| O=c1ccc2cc3ccoc3cc2o1 [psoralen] | – | – | – | reduce viable cells | reduce viable cells | reduce viable cells |

— US10940329B2, “Phosphor-containing drug activator activatable by a Monte Carlo derived x-ray exposure, system containing the activator, and methods for use” (IMMUNOLIGHT, LLC, priority 2016, dated 2021)
